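Method: 48-hour compound exposure of cells in 96-well plates, five concentrations, linear interpolation of endpoints. GI50 is the concentration that inhibits growth by half.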 The source made the active and inactive calls. Rule as the data show it: active = GI50 up to about 1.1 µM and inactive = higher.
What was measured:
Test in all cases: growth of human tumour cells (NCI), 48 h
[1] = tested on: 786-0
[2] = tested on: A549
[3] = tested on: ACHN
[4] = tested on: BT-549
[5] = tested on: CAKI-1
[6] = tested on: CCRF-CEM
[7] = tested on: COLO 205
[8] = tested on: DU-145
[9] = tested on: EKVX
[10] = tested on: HCC 2998
[11] = tested on: HCT-116
[12] = tested on: HCT-15
[13] = tested on: HL-60
[14] = tested on: HOP-62
[15] = tested on: HOP-92
[16] = tested on: HT-29
[17] = tested on: Hs-578T
[18] = tested on: IGROV-1
[19] = tested on: K562
[20] = tested on: KM12
[21] = tested on: LOX IMVI
[22] = tested on: M14
[23] = tested on: MCF7
[24] = tested on: MDA-MB-231
[25] = tested on: MDA-MB-435
[26] = tested on: MDA-N
[27] = tested on: MOLT-4
[28] = tested on: Malme-3M
[29] = tested on: NCI-H23
[30] = tested on: NCI-H460
[31] = tested on: NCI-H522
[32] = tested on: NCI/ADR-RES
[33] = tested on: OVCAR-3
[34] = tested on: OVCAR-4
[35] = tested on: OVCAR-5
[36] = tested on: OVCAR-8
[37] = tested on: PC-3
[38] = tested on: RPMI-8226
[39] = tested on: SF-268
[40] = tested on: SF-295
[41] = tested on: SF-539
[42] = tested on: SK-MEL-28
[43] = tested on: SK-MEL-2
[44] = tested on: SK-MEL-5
[45] = tested on: SK-OV-3
[46] = tested on: SN12C
[47] = tested on: SNB-19
[48] = tested on: SNB-75
[49] = tested on: SR
[50] = tested on: SW-620
[51] = tested on: T47D
[52] = tested on: TK-10
[53] = tested on: U-251
[54] = tested on: UACC-257
[55] = tested on: UACC-62
[56] = tested on: UO-31
[57] = tested on: A498
[58] = tested on: NCI-H226
[59] = tested on: RXF 393

Which results are given for `O=C(CN1CCCCC1)Nc1ccc2sc3ccccc3c(=O)c2n1`?
GI50 [1]: 12.9 µM (inactive); GI50 [2]: 15 µM (inactive); GI50 [3]: 14.2 µM (inactive); GI50 [4]: 19.3 µM (inactive); GI50 [5]: 13.6 µM (inactive); GI50 [6]: 5.92 µM (inactive); GI50 [7]: 10.8 µM (inactive); GI50 [8]: 20.3 µM (inactive); GI50 [9]: 22.7 µM (inactive); GI50 [10]: 14.8 µM (inactive); GI50 [11]: 9.23 µM (inactive); GI50 [12]: 12.2 µM; GI50 [13]: 17.1 µM (inactive); GI50 [14]: 13.8 µM (inactive); GI50 [15]: 15.1 µM (inactive); GI50 [16]: 30.3 µM (inactive); GI50 [17]: 18.8 µM (inactive); GI50 [18]: 16 µM (inactive); GI50 [19]: 5.36 µM (inactive); GI50 [20]: 19.1 µM (inactive); GI50 [21]: 7.01 µM (inactive); GI50 [22]: 17.9 µM (inactive); GI50 [23]: 19.5 µM (inactive); GI50 [24]: 18.5 µM (inactive); GI50 [25]: 13.1 µM (inactive); GI50 [26]: 13.4 µM (inactive); GI50 [27]: 2.69 µM (inactive); GI50 [28]: 32.1 µM (inactive); GI50 [29]: 16.9 µM (inactive); GI50 [30]: 13.2 µM (inactive); GI50 [31]: 6.44 µM (inactive); GI50 [32]: 7.82 µM (inactive); GI50 [33]: 31.5 µM (inactive); GI50 [34]: 30.1 µM (inactive); GI50 [35]: 18.2 µM (inactive); GI50 [36]: 13.7 µM (inactive); GI50 [37]: 10.9 µM (inactive); GI50 [38]: 13.1 µM (inactive); GI50 [39]: 24.2 µM (inactive); GI50 [40]: 15 µM (inactive); GI50 [41]: 16.4 µM (inactive); GI50 [42]: 17.3 µM (inactive); GI50 [43]: 18.6 µM (inactive); GI50 [44]: 15.8 µM (inactive); GI50 [45]: 21.3 µM (inactive); GI50 [46]: 12.5 µM (inactive); GI50 [47]: 19.9 µM (inactive); GI50 [48]: 15.2 µM (inactive); GI50 [49]: 21.5 µM (inactive); GI50 [50]: 5.25 µM (inactive); GI50 [51]: 27.2 µM (inactive); GI50 [52]: 19.1 µM (inactive); GI50 [53]: 16.6 µM (inactive); GI50 [54]: 18.2 µM (inactive); GI50 [55]: 15.4 µM (inactive); GI50 [56]: 9.95 µM (inactive)

What does the source list for `S=P(C1CCCCC1)(C1CCCCC1)C(c1cccnc1)N1CCCC1` (centres undefined)?
GI50 [1]: 17.6 µM (inactive); GI50 [57]: 27.7 µM (inactive); GI50 [2]: 17.8 µM (inactive); GI50 [3]: 20.3 µM (inactive); GI50 [4]: 18.5 µM (inactive); GI50 [5]: 17.4 µM (inactive); GI50 [6]: 15.8 µM (inactive); GI50 [7]: 18.9 µM (inactive); GI50 [8]: 16.1 µM (inactive); GI50 [9]: 19.1 µM (inactive); GI50 [11]: 18.5 µM (inactive); GI50 [12]: 35.7 µM; GI50 [13]: 18.1 µM (inactive); GI50 [14]: 16.3 µM (inactive); GI50 [15]: 23.5 µM (inactive); GI50 [16]: 33.8 µM (inactive); GI50 [17]: 35.4 µM (inactive); GI50 [18]: 17.9 µM (inactive); GI50 [19]: 21.2 µM (inactive); GI50 [20]: 17.5 µM (inactive); GI50 [21]: 7.18 µM (inactive); GI50 [22]: 18.4 µM (inactive); GI50 [23]: > 100 µM (inactive); GI50 [24]: 18.6 µM (inactive); GI50 [25]: 18.4 µM (inactive); GI50 [26]: 20.1 µM (inactive); GI50 [27]: 24 µM (inactive); GI50 [28]: 23.2 µM (inactive); GI50 [58]: 19.4 µM (inactive); GI50 [29]: 18.7 µM (inactive); GI50 [30]: 20.2 µM (inactive); GI50 [31]: 20.6 µM (inactive); GI50 [32]: 19 µM (inactive); GI50 [33]: 92.5 µM (inactive); GI50 [34]: 21.5 µM (inactive); GI50 [35]: 36.1 µM (inactive); GI50 [36]: 23.8 µM (inactive); GI50 [37]: 18.3 µM (inactive); GI50 [38]: 15.5 µM (inactive); GI50 [59]: 18.6 µM (inactive); GI50 [39]: 18.5 µM (inactive); GI50 [40]: 21.2 µM (inactive); GI50 [41]: 16.7 µM (inactive); GI50 [42]: > 100 µM (inactive); GI50 [43]: 20.9 µM (inactive); GI50 [44]: 16.5 µM (inactive); GI50 [45]: 81.8 µM (inactive); GI50 [46]: 18.2 µM (inactive); GI50 [47]: 83.2 µM (inactive); GI50 [48]: 19.4 µM (inactive); GI50 [49]: 25.5 µM (inactive); GI50 [50]: 36.2 µM (inactive); GI50 [51]: 31.9 µM (inactive); GI50 [52]: 18.5 µM (inactive); GI50 [53]: 20.2 µM (inactive); GI50 [54]: > 100 µM (inactive); GI50 [55]: 22.5 µM (inactive)

`Cc1n[nH]c(=O)c2c3c([nH]c12)-c1ccccc1C3` was tested. Which GI50 [1] did it give?
The GI50 was > 100 µM (inactive).

And the GI50 [57]?
The GI50 was > 100 µM (inactive).

And the GI50 [2]?
The GI50 was > 100 µM (inactive).

What about the GI50 [3] of the same compound?
The GI50 was > 100 µM (inactive).

And the GI50 [4]?
Its GI50 is > 100 µM (inactive).

And the GI50 [5]?
Its GI50 is > 100 µM (inactive).

And the GI50 [6]?
Its GI50 is > 100 µM (inactive).

And the GI50 [7]?
The GI50 was > 100 µM (inactive).

What about the GI50 [8] of the same compound?
Its GI50 is > 100 µM (inactive).

And the GI50 [9]?
The GI50 was > 100 µM (inactive).

What about the GI50 [11] of the same compound?
The GI50 was > 100 µM (inactive).

And the GI50 [12]?
Its GI50 is > 100 µM.

What about the GI50 [14] of the same compound?
Its GI50 is > 100 µM (inactive).

What about the GI50 [15] of the same compound?
The GI50 was > 100 µM (inactive).

What about the GI50 [16] of the same compound?
The GI50 was > 100 µM (inactive).

What about the GI50 [17] of the same compound?
The GI50 was > 100 µM (inactive).

What about the GI50 [18] of the same compound?
The GI50 was 0.0716 µM (active).

What about the GI50 [19] of the same compound?
The GI50 was > 100 µM (inactive).

What about the GI50 [20] of the same compound?
Its GI50 is > 100 µM (inactive).

And the GI50 [21]?
Its GI50 is > 100 µM (inactive).

And the GI50 [22]?
The GI50 was > 100 µM (inactive).

What about the GI50 [23] of the same compound?
Its GI50 is 75.3 µM (inactive).

And the GI50 [24]?
The GI50 was 66.4 µM (inactive).

What about the GI50 [25] of the same compound?
The GI50 was > 100 µM (inactive).

What about the GI50 [26] of the same compound?
The GI50 was > 100 µM (inactive).

What about the GI50 [27] of the same compound?
The GI50 was 39.9 µM (inactive).

And the GI50 [28]?
Its GI50 is > 100 µM (inactive).

What about the GI50 [58] of the same compound?
The GI50 was 51.1 µM (inactive).

What about the GI50 [29] of the same compound?
The GI50 was > 100 µM (inactive).

And the GI50 [30]?
Its GI50 is > 100 µM (inactive).

And the GI50 [31]?
The GI50 was > 100 µM (inactive).

What about the GI50 [32] of the same compound?
The GI50 was > 100 µM (inactive).

And the GI50 [33]?
Its GI50 is > 100 µM (inactive).

And the GI50 [34]?
Its GI50 is > 100 µM (inactive).

And the GI50 [35]?
The GI50 was > 100 µM (inactive).

What about the GI50 [36] of the same compound?
Its GI50 is > 100 µM (inactive).

And the GI50 [37]?
Its GI50 is > 100 µM (inactive).

And the GI50 [38]?
Its GI50 is > 100 µM (inactive).

And the GI50 [59]?
Its GI50 is 77.3 µM (inactive).

What about the GI50 [39] of the same compound?
The GI50 was > 100 µM (inactive).

And the GI50 [40]?
Its GI50 is > 100 µM (inactive).

And the GI50 [41]?
Its GI50 is > 100 µM (inactive).

And the GI50 [42]?
Its GI50 is > 100 µM (inactive).

What about the GI50 [43] of the same compound?
The GI50 was > 100 µM (inactive).

And the GI50 [44]?
Its GI50 is > 100 µM (inactive).

What about the GI50 [45] of the same compound?
The GI50 was > 100 µM (inactive).

And the GI50 [46]?
The GI50 was > 100 µM (inactive).

What about the GI50 [47] of the same compound?
Its GI50 is > 100 µM (inactive).

And the GI50 [48]?
The GI50 was 18.7 µM (inactive).

What about the GI50 [49] of the same compound?
Its GI50 is 82.8 µM (inactive).

And the GI50 [50]?
Its GI50 is > 100 µM (inactive).

And the GI50 [51]?
Its GI50 is 23.5 µM (inactive).

What about the GI50 [52] of the same compound?
Its GI50 is 63.4 µM (inactive).

And the GI50 [53]?
The GI50 was > 100 µM (inactive).

And the GI50 [54]?
Its GI50 is 19.5 µM (inactive).

What about the GI50 [56] of the same compound?
The GI50 was > 100 µM (inactive).

From ChEMBL document CHEMBL1201862, “PubChem BioAssay data set” (2004)
